The values below come from patent US20180244660A1, “CYCLOPROPYLDERIVATIVES AND THEIR USE AS KINASE INHIBITORS” (Karyopharm Therapeutics Inc., priority 2015, published 2018).

Assay [1] has as its system MS751 cells. In words: MTT cell proliferation assay, MS751 cells. It counts as cell-based, human. The following applies: incubation approximately 64-72 hours, read-out: MTT Assay IC50 MS 751. The method, then:
(§1) The MTT cell proliferation assay was used to study the cytotoxic properties of the compounds. The assay was performed according to the method described by Roche Molecular Biochemicals, with minor modifications. The assay is based on the cleavage of the tetrazolium salt, MTT, in the presence of an electron-coupling reagent. The water-insoluble formazan salt produced must be solubilized in an additional step. Cells grown in a 96-well tissue culture plate were incubated with the MTT solution for approximately 4 hours. After this incubation period, a water-insoluble formazan dye formed. After solubilization, the formazan dye was quantitated using a scanning multi-well spectrophotometer (ELISA reader). […] The cells were seeded at 5,000-10,000 cells in each well of 96-well plate in 100 μL of fresh culture medium and were allowed to attach overnight. The stock solutions of the compounds were diluted in 100 μL cell culture medium to obtain eight concentrations of each test compound, ranging from 1 nM to 30 μM. […] All optical densities were measured at 490 nm using a Vmax Kinetic Microplate Reader (Molecular Devices). In most cases, the assay was performed in duplicate and the results were presented as a mean percent inhibition to the negative control+SE. The following formula was used to calculate the percent of inhibition: Inhibition (%)=(1−(ODo/OD))×100.
(§2) The compounds were tested against MS751, Z138 and 3T3 cells. The MS751 cell line is derived from a metastasis to lymph node of human cervix from a patient diagnosed with squameous cell carcinoma of the cervix. The Z138 cell line is a mature B-cell acute lymphoblastic leukemia cell line derived from a patient with chronic lumphocytic leukemia. 3T3 cells are standard fibroblast cells; they were originally isolated from Swiss mouse embryo tissue.
(In general: Tetrazolium dyes change colour on reduction, which living cells bring about.)

For assay [2], the system named is 3T3 cells. In words: MTT cell proliferation assay, 3T3 cells. The conditions noted are these: 3T3 fibroblast cells, incubation approximately 64-72 hours. The class given is cell-based, mouse. The method, then: as §1, §2
For assay [3], the system named is Z138 cells. In words: MTT cell proliferation assay, Z138 cells. It counts as cell-based, human. The method, then:
as §1, §2

The mark [4] stands for this setting: Homo sapiens, Z-138, incubation approximately 64-72 hours.

Where two headings read alike, the source gives them in different places.

Broadly, the IC50 is the midpoint of a concentration-inhibition curve.

`Nc1ccc([C@H]2C[C@@H]2C(=O)NCCc2cc3cc(-c4ccc(C(=O)N5CCC(F)(F)CC5)cc4)cc(-c4ccc(F)cc4)c3o2)cn1` [Compound K019, (1S,2S)-2-(6-aminopyridin-3-yl)-N—(2-(5-(4-(4,4-difluoropiperidine-1-carbonyl)phenyl)-7-(4-fluorophenyl)benzofuran-2-yl)ethyl)cyclopropanecarboxamide]: the IC50 was under 1000 nM in assay [1] (Homo sapiens); 1000 to 5000 nM in assay [2] (Mus musculus, NIH3T3); under 1000 nM in assay [3] (setting [4]).
Take `Nc1ccc([C@H]2C[C@@H]2C(=O)NCc2cc3cc(-c4ccc(C(=O)N5CC(F)C5)cc4)cc(-c4ccc(F)cc4)c3o2)cn1` [Compound K020, (1S,2S)-2-(6-aminopyridin-3-yl)-N—((5-(4-(3-fluoroazetidine-1-carbonyl)phenyl)-7-(4-fluorophenyl)benzofuran-2-yl)methyl)cyclopropanecarboxamide]: the IC50 was under 1000 nM in assay [1] (Homo sapiens); 1000 to 5000 nM in assay [2] (Mus musculus, NIH3T3); under 1000 nM in assay [3] (setting [4]).
As to `Nc1ccc([C@H]2C[C@@H]2C(=O)NCc2nc3cc(-c4ccc(C(=O)N5CCC(F)(F)CC5)cc4)cc(-c4ccc(F)cc4)c3o2)cn1` [Compound K021, (1S,2S)-2-(6-aminopyridin-3-yl)-N—((5-(4-(4,4-difluoropiperidine-1-carbonyl)phenyl)-7-(4-fluorophenyl)benzo[d]oxazol-2-yl)methyl)cyclopropanecarboxamide], the concentration for half-maximal inhibition (IC50) in assay [1] (Homo sapiens) is over 10000 nM; in assay [2] (Mus musculus, NIH3T3) it was over 10000 nM; in assay [3] (setting [4]) it was over 10000 nM.
For the compound `Nc1ccc([C@H]2C[C@@H]2C(=O)NCc2cc3cc(-c4ccc(C(=O)N5CCC(F)(F)CC5)cc4)cc(-c4ccc(F)cc4)c3[nH]2)cn1` [Compound K022, (1S,2S)-2-(6-aminopyridin-3-yl)-N—((5-(4-(4,4-difluoropiperidine-1-carbonyl)phenyl)-7-(4-fluorophenyl)-1H-indol-2-yl)methyl)cyclopropanecarboxamide], the IC50 was 1000 to 5000 nM in assay [1] (Homo sapiens); over 10000 nM in assay [2] (Mus musculus, NIH3T3); 5000 to 10000 nM in assay [3] (setting [4]).
On the same counts, the results for `Cn1c(CNC(=O)[C@H]2C[C@@H]2c2ccc(N)nc2)cc2cc(-c3ccc(C(=O)N4CCC(F)(F)CC4)cc3)cc(-c3ccc(F)cc3)c21` [Compound K023, (1S,2S)-2-(6-aminopyridin-3-yl)-N—((5-(4-(4,4-difluoropiperidine-1-carbonyl)phenyl)-7-(4-fluorophenyl)-1-methyl-1H-indol-2-yl)methyl)cyclopropanecarboxamide] are 1000 to 5000 nM, over 10000 nM and 1000 to 5000 nM.
For the compound `Nc1ccc([C@H]2C[C@@H]2C(=O)NCc2cc3cc(-c4ccc(C(=O)N5CC(F)C5)cc4F)cc(-c4ccc(F)cc4)c3o2)cn1` [Compound K024, (1S,2S)-2-(6-aminopyridin-3-yl)-N—((5-(2-fluoro-4-(3-fluoroazetidine-1-carbonyl)phenyl)-7-(4-fluorophenyl)benzofuran-2-yl)methyl)cyclopropanecarboxamide], the IC50 is under 1000 nM in assay [1] (Homo sapiens); under 1000 nM in assay [2] (Mus musculus, NIH3T3); under 1000 nM in assay [3] (setting [4]).
Turning to `Nc1ccc([C@H]2C[C@@H]2C(=O)NCc2cnc(-c3ccc(-c4ccc(C(=O)N5CC(F)(F)C5)cc4)cc3C(F)(F)F)o2)cn1` [Compound K025, (1S,2S)-2-(6-aminopyridin-3-yl)-N—((2-(4′-(3,3-difluoroazetidine-1-carbonyl)-3-(trifluoromethyl)biphenyl-4-yl)oxazol-5-yl)methyl)cyclopropanecarboxamide], the IC50 in assay [1] (Homo sapiens) is 1000 to 5000 nM; in assay [2] (Mus musculus, NIH3T3), over 10000 nM; in assay [3] (setting [4]), 1000 to 5000 nM.
Regarding `[2H]c1c(CNC(=O)[C@H]2C[C@@H]2c2ccc(N)nc2)oc2c(-c3ccc(F)cc3)cc(-c3ccc(C(=O)N4CC(F)C4)cc3)cc12` [Compound K026, (1S,2S)-2-(6-aminopyridin-3-yl)-N—((3-deutero-5-(4-(3-fluoroazetidine-1-carbonyl)phenyl)-7-(4-fluorophenyl)benzofuran-2-yl)methyl)cyclopropanecarboxamide], the IC50 is under 1000 nM in assay [1] (Homo sapiens); 1000 to 5000 nM in assay [2] (Mus musculus, NIH3T3); under 1000 nM in assay [3] (setting [4]).
In the case of `Nc1ccc([C@H]2C[C@@H]2c2nc(-c3cc4cc(-c5ccc(C(=O)N6CC(F)C6)cc5)cc(-c5ccc(F)cc5)c4o3)co2)cn1` [Compound K029, (4-(2-(2-((1S,2S)-2-(6-aminopyridin-3-yl)cyclopropyl)oxazol-4-yl)-7-(4-fluorophenyl)benzofuran-5-yl)phenyl)(3-fluoroazetidin-1-yl)methanone], the IC50 is 1000 to 5000 nM in assay [1] (Homo sapiens); over 10000 nM in assay [2] (Mus musculus, NIH3T3); 1000 to 5000 nM in assay [3] (setting [4]).
For the compound “(1S,2S)-2-(6-aminopyridin-3-yl)-N—((7-chloro-5-(4-(3,3-difluoroazetidine-1-carbonyl)phenyl)-2,3-dihydrobenzofuran-2-yl)methyl)cyclopropanecarboxamide [Compound K028]”, the IC50 in assay [1] is under 1000 nM; in assay [2], over 10000 nM; in assay [3] (incubation approximately 64-72 hours, read-out: MTT Assay IC50 Z-138) it was under 1000 nM.
